Source: patent US7439359B2, “Small molecule compositions for binding to hsp90” (Sloan-Kettering Institute for Cancer Research, priority 2000, dated 2008)
Where two headings read alike, the source gives them in different places.

What was measured:
[1] = biological target: T1, Hsp90 beta (Homo sapiens, UniProt P08238); assay: Solid phase competition assay with GM-beads, Hsp90 beta immunoblot; type: binding; conditions: for EC50: competition with immobilized GM, unit inferred, read-out: EC50 Hsp90 β
T1 construct: purchased Stressgen SPP-770
T1 sequence (P08238 whole entry): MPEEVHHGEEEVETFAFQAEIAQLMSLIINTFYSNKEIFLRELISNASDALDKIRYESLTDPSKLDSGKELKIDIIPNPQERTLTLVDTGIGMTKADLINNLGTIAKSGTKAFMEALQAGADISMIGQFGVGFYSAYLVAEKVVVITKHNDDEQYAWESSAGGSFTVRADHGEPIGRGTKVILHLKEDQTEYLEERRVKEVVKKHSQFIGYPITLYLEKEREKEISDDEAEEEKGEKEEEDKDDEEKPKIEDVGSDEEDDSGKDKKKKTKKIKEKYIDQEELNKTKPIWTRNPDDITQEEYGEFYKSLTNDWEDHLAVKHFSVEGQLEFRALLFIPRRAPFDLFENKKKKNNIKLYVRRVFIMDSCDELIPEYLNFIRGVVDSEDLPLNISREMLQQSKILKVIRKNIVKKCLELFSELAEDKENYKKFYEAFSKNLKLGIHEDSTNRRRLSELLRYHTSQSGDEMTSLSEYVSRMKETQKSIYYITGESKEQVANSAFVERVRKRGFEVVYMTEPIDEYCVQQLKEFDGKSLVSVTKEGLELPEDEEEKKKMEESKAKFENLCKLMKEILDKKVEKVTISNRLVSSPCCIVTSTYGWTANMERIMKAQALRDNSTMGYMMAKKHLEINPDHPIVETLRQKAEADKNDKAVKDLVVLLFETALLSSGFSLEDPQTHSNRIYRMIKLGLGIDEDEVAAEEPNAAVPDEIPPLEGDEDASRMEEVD
Experimental: (§1) A test was also designed which allows identification of compounds which interact differentially with Hsp90-alpha and Hsp90-beta. […] An Hsp90 protein preparation containing both the alpha and the beta form is incubated with the support in the presence or absence of a compound to be evaluated. […] After washing, the material bound to the support is eluted and the eluate is separated on an SDS/PAGE gel and visualized by immunoblotting with anti-Hsp90-alpha and anti-Hsp90-beta to determine the amount of material bound. Alternatively, if quantitative amounts of the Hsp90 protein preparation or known ratios of alpha to beta forms of Hsp90 are used in the first instance, the unbound material can be analyzed by a similar technique.
(§2) Protein Assays. […] Antiproliferative index. […] Tissue Culture IC50 Studies. […] Her2 degradation. Total Protein Assays. […] Binding studies. Solid phase competition assays.

[2] = system: Her2; assay: Her2 total protein degradation in MCF-7 cells (immunoblot);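 note: Her2 levels judged by SDS-PAGE western blot of whole-cell lysates probed with anti-Her2 antibody, compared with DMSO vehicle-treated cells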
Experimental: For assays on protein levels, cells were grown to 60-70% confluence exposed to drugs or DMSO vehicle for the indicated time periods. Lysates were prepared using 50 mM Tris pH=7.4, 2% SDS and 10% glycerol lysis buffer. Protein concentration was determined using the BCA kit (Pierce Chemical Co.), according to the manufacturers instructions. Clarified protein lysates (20-50 mg) were electrophoretically resolved on denaturing SDS-PAGE, transferred to nitrocellulose and probed with the following primary antibodies: anti-Her2 (C-18), -Her3 (C-17), -Raf-1, -cyclin D1, -Rb (C-15) (Santa Cruz), anti-hsp90, -hsp70, -ER (Stressgen), anti-Trap-1 (MSK81), anti-b-actin, -tubulin (Sigma), anti-PI3K (p85) (Upstate Biotechnologies).
After 24 hours, the cells were lysed and the amount of Her2 in the cells was evaluated.
Protein Assays. Cells were grown to 60-70% confluence and exposed to drugs or DMSO vehicle for the indicated time periods. Lysates were prepared using 50 mM Tris pH 7.4, 2% SDS and 10% glycerol lysis buffer. Protein concentration was determined using the BCA kit (Pierce Chemical Co.), according to the manufacturers instructions. Clarified protein lysates (20-50 mg) were electrophoretically resolved on denaturing SDS-PAGE, transferred to nitrocellulose and probed with the following primary antibodies: anti-Her2 (C-18), -Her3 (C-17), -Raf-1, -cyclin D1, -Rb (C-15) (Santa Cruz Biotechnology), anti-hsp90, -hsp70 (Stressgen) anti-Trap-1 (MSK81), anti-b-actin, -tubulin (Sigma), ER, anti-PI3K (p85) (Upstate Biotechnologies). […] Her2 degradation. Total Protein Assays. Cells were grown to 60-70% confluence and exposed to drugs or DMSO vehicle for the indicated time periods. Lysates were prepared using 50 mM Tris pH 7.4, 2% SDS and 10% glycerol lysis buffer. Protein concentration was determined using the BCA kit (Pierce Chemical Co.), according to the manufacturers instructions. Clarified protein lysates (20-50 μg) were electrophoretically resolved on denaturing SDS-PAGE, transferred to nitrocellulose and probed with the anti-Her2 primary antibody (C-18) (Santa Cruz Biotechnology).

[3] = system: MCF-7; assay: Growth inhibition, sulforhodamine B assay; type: cell-based, human; conditions: unit inferred
From the text: as §2

[4] = system: MDA-MB-468; assay: Growth inhibition, sulforhodamine B assay; type: cell-based, human; conditions: for IC50: unit inferred
From the text: as §2

[5] = biological target: Hsp90alpha (Homo sapiens, UniProt P07900); assay: Solid phase competition assay with GM-beads, Hsp90 alpha immunoblot; type: binding; parameters: purchased Stressgen SPP-770; conditions: for EC50: competition with immobilized GM, unit inferred, read-out: EC50 Hsp90 α
Experimental: as §1, §2

[6] = system: BT-474; assay: Growth inhibition, sulforhodamine B assay; type: cell-based; conditions: Homo sapiens, 72 hours, unit inferred
From the text: as §2

[7] = read-out: IC50 Her2/MCF-7, Her2 total protein degradation in MCF-7, unit inferred
[8] = Homo sapiens, MCF7, read-out: IC50 Her2/MCF-7
[9] = Homo sapiens, MDA-MB-468, 72 hours

| SMILES | EC50 [1] | IC50 [2, 7] | IC50 ([3]; 72 hours) | IC50 ([4]; 72 hours) | EC50 [5] | IC50 [2, 8] | IC50 [6] | IC50 ([3]; Homo sapiens, MCF7, 72 hours) | IC50 [4, 9] | IC50 MDA-468 ([4]; 72 hours, unit not given) | binding to hsp 90-beta [1] | binding to hsp 90-alpha [5] |
| --- | --- | --- | --- | --- | --- | --- | --- | --- | --- | --- | --- | --- |
| COc1cc(Cc2nc3c(N)ncnc3n2CCOC(C)C)cc(OC)c1OC [PU29] | 1.7 µM | 45 µM | 39 µM | 72 µM | 1.4 µM |  |  |  |  |  |  |  |
| C=CCCn1c(Cc2cc(OC)c(OC)c(OC)c2)nc2c(N)nc(F)nc21 [PU8F, 2-Fluoro-9-but-3-enyl-8-(3,4,5-trimethoxy-benzyl)-9H-purin-6-ylamine] | 9.8 µM |  |  |  | 5 µM | 30 µM | 35 µM | 33 µM | 25 µM |  |  |  |
| COc1cc(Cc2nc3c(N)ncnc3n2CC2CCCO2)cc(OC)c1OC (stereo not shown) [PU20] | 3.4 µM |  |  |  | 4.4 µM | 70 µM |  | 92 µM | 80 µM |  |  |  |
| COc1cc(Cc2nc3c(N)nc(F)nc3n2CC2CCCO2)cc(OC)c1OC (stereo not shown) [PU20F, 2-Fluoro-9-(tetrahydrofuran-2-ylmethyl)-8-(3,4,5-trimethoxy-benzyl)-9H-purin-6-ylamine] | 6.8 µM |  |  |  | 2.3 µM | 20 µM | 25 µM | 23 µM | 21 µM |  |  |  |
| CCCCn1c(Cc2cc(OC)c(OC)c(OC)c2Cl)nc2c(N)ncnc21 [PU3PhCl, 9-butyl-8-(2-chloro-3,4,5-trimethoxy-benzyl)-9H-purin-6-ylamine] | 4.6 µM |  |  |  | 18.6 µM | 25 µM | 30 µM | 19 µM | 36 µM |  |  |  |
| COc1cc(Cc2nc3c(N)nc(F)nc3n2CC2CCC2)cc(OC)c1OC [PU16F, 2-Fluoro-9-cyclobutylmethyl-8-(3,4,5-trimethoxy-benzyl)-9H-purin-6-ylamine] | 9.2 µM |  |  |  | 30.7 µM | 40 µM | 31 µM | 41 µM | 21 µM |  |  |  |
| COc1cc(Cc2nc3c(N)ncnc3n2CC2(C)CC2)cc(OC)c1OC [PU30] | 47.8 µM | 120 µM | 111 µM |  | 111 µM |  |  |  |  |  |  |  |
| COc1cc(Cc2nc3c(N)ncnc3n2C)cc(OC)c1OC [PU13] |  |  | 70 µM | 75 µM |  |  |  |  |  |  |  |  |
| COc1cc(Cc2nc3c(N)ncnc3n2CC2CCC2)cc(OC)c1OC [PU16] | 32 µM | 60 µM | 46 µM | 68 µM | 17 µM |  |  |  |  |  |  |  |
| C#CCCCn1c(Cc2cc(OC)c(OC)c(OC)c2)nc2c(N)ncnc21 [PU24] | 1.5 µM |  |  |  | 2.6 µM | 20 µM |  | 24 µM | 41 µM |  |  |  |
| CCn1c(Cc2cc(OC)c(OC)c(OC)c2)nc2c(N)ncnc21 [PU22] |  |  | 80 µM | 118 µM |  |  |  |  |  |  |  |  |
| COc1cc(Cc2nc3c(N)ncnc3n2CC(OC)OC)cc(OC)c1OC [PU25] |  |  | 82 µM |  |  |  |  |  |  |  |  |  |
| C=CCCCn1c(Cc2cc(OC)c(OC)c(OC)c2)nc2c(N)nc(F)nc21 [PU47F, 2-Fluoro-9-pent-4-enyl-8-(3,4,5-trimethoxy-benzyl)-9H-purin-6-ylamine] | 9.9 µM |  |  |  | 10.7 µM | 50 µM | 46 µM | 45 µM | 33 µM |  |  |  |
| COc1cc(Cc2nc3c(N)nc(F)nc3n2CCOC(C)C)cc(OC)c1OC [PU29F, 2-Fluoro-9-(2-isopropoxy-ethyl)-8-(3,4,5-trimethoxy-benzyl)-9H-purin-6-ylamine] | 1.3 µM |  |  |  | 2 µM | 15 µM |  | 16 µM | 16 µM |  |  |  |
| CCCCCn1c(Cc2cc(OC)c(OC)c(OC)c2)nc2c(N)ncnc21 [PU21] | 11.8 µM |  |  |  | 22.5 µM | 50 µM |  | 62 µM | 73 µM |  |  |  |
| COCCn1c(Cc2cc(OC)c(OC)c(OC)c2)nc2c(N)nc(F)nc21 [PU44F, 2-Fluoro-9-(2-methoxy-ethyl)-8-(3,4,5-trimethoxy-benzyl)-9H-purin-6-ylamine] | 13.8 µM |  |  |  | 7.9 µM | 65 µM | 60 µM | 64 µM | 35 µM |  |  |  |
| CCCCn1c(Cc2cc(OC)c(OC)c(OC)c2)nc2c(N)nc(F)nc21 [PU3F, 2-Fluoro-9-butyl-8-(3,4,5-trimethoxy-benzyl)-9H-purin-6-ylamine] | 3.5 µM |  |  |  | 6 µM | 25 µM | 29 µM | 24 µM | 30 µM |  |  |  |
| CCCn1c(Cc2cc(OC)c(OC)c(OC)c2)nc2c(N)ncnc21 [PU43] | 10.8 µM | 50 µM | 47 µM | 54 µM | 6.6 µM |  |  |  |  |  |  |  |

| SMILES | EC50 [1] | IC50 [2, 7] | IC50 ([3]; 72 hours) | IC50 ([4]; 72 hours) | EC50 [5] | IC50 [2, 8] | IC50 [6] | IC50 ([3]; Homo sapiens, MCF7, 72 hours) | IC50 [4, 9] | IC50 MDA-468 ([4]; 72 hours, unit not given) | binding to hsp 90-beta [1] | binding to hsp 90-alpha [5] |
| --- | --- | --- | --- | --- | --- | --- | --- | --- | --- | --- | --- | --- |
| CCCCn1c(Cc2cc(OC)c(OC)c(OC)c2Br)nc2c(N)ncnc21 [PU3PhBr, 9-butyl-8-(2-bromo-3,4,5-trimethoxy-benzyl)-9H-purin-6-ylamine] | 11.7 µM |  |  |  | 35.3 µM | 50 µM | 60 µM | 25 µM |  | INSOL |  |  |
| CC/C=C/Cn1c(Cc2cc(OC)c(OC)c(OC)c2)nc2c(N)ncnc21 [PU23] | 9.5 µM | 50 µM | 47 µM | 55 µM | 13.3 µM |  |  |  |  |  |  |  |
| C#CCCCn1c(Cc2cc(OC)c(OC)c(OC)c2)nc2c(N)nc(F)nc21 [PU24F, 2-Fluoro-9-pent-4-ynyl-8-(3,4,5-trimethoxy-benzyl)-9H-purin-6-ylamine] | 0.7 µM |  |  |  | 6.2 µM | 5 µM | 14 µM | 11 µM | 15 µM |  |  |  |
| COc1cc(Cc2nc3c(N)ncnc3n2CC(C)C)cc(OC)c1OC [PU41] | 20.4 µM | 100 µM | 98 µM | 70 µM | 16.6 µM |  |  |  |  |  |  |  |
| CCCCCn1c(Cc2cc(OC)c(OC)c(OC)c2)nc2c(N)nc(F)nc21 [PU21F, 2-Fluoro-9-pentyl-8-(3,4,5-trimethoxy-benzyl)-9H-purin-6-ylamine] | 8.9 µM |  |  |  | 22 µM | 35 µM | 43 µM | 36 µM | 19 µM |  |  |  |
| COc1cc(Cc2nc3c(N)ncnc3n2CCCC(C)C)cc(OC)c1OC [PU9] | 114 µM |  | 69 µM | 85 µM | 28 µM |  |  |  |  |  |  |  |
| CCC(CC)Cn1c(Cc2cc(OC)c(OC)c(OC)c2)nc2c(N)ncnc21 [PU14] | 52.1 µM | > 100 µM | 160 µM | 130 µM | 62.3 µM |  |  |  |  |  |  |  |
| CCC(C)Cn1c(Cc2cc(OC)c(OC)c(OC)c2)nc2c(N)ncnc21 (stereo not shown) [PU26] | 15.7 µM | 70 µM | 62 µM | 71 µM | 25.3 µM |  |  |  |  |  |  |  |
| CCCn1c(Cc2cc(OC)c(OC)c(OC)c2)nc2c(N)nc(F)nc21 [PU43F, 2-Fluoro-9-propyl-8-(3,4,5-trimethoxy-benzyl)-9H-purin-6-ylamine] | 5.3 µM |  |  |  | 4.1 µM | 30 µM | 30 µM | 25 µM | 25 µM |  |  |  |
| CC/C=C\Cn1c(Cc2cc(OC)c(OC)c(OC)c2)nc2c(N)ncnc21 [PU7] | 75 µM | 70 µM | 64 µM | 80 µM | 17.6 µM |  |  |  |  |  |  |  |
| CC=CCn1c(Cc2cc(OC)c(OC)c(OC)c2)nc2c(N)ncnc21 (mixture of isomers) [PU11] |  |  | 51 µM | 66 µM |  |  |  |  |  |  |  |  |
| CCCCn1c(Cc2c(Br)c(OC)c(OC)c(OC)c2Br)nc2c(N)ncnc21 [PU3PhBr2, 9-butyl-8-(2,6-dibromo-3,4,5-trimethoxy-benzyl)-9H-purin-6-ylamine] | > 100 µM |  |  |  | > 100 µM | > 100 µM |  | 30 µM | 21 µM |  |  |  |
| COCCn1c(Cc2cc(OC)c(OC)c(OC)c2)nc2c(N)ncnc21 [PU44] | 12.4 µM | 85 µM | 65 µM | 79 µM | 4.1 µM |  |  |  |  |  |  |  |
| CCCCn1c(Oc2cc(OC)c(OC)c(OC)c2)nc2c(N)ncnc21 [Compound 69, 9-Butyl-8-(3,4,5-trimethoxy-phenoxy)-9H-purin-6-ylamine] |  |  |  |  |  |  |  |  |  |  | weak binding | no detectable binding |
| C#CCCn1c(Cc2cc(OC)c(OC)c(OC)c2)nc2c(N)nc(F)nc21 [PU48F, 2-Fluoro-9-but-3-ynyl-8-(3,4,5-trimethoxy-benzyl)-9H-purin-6-ylamine] | 3.5 µM |  |  |  | 10 µM | 20 µM | 28 µM | 25 µM | 16 µM |  |  |  |
| COc1cc(Cc2nc3c(N)nc(F)nc3n2CCOC(C)C)c(Cl)c(OC)c1OC [PU29FCl, 2-Fluoro-9-(2-isopropoxy-ethyl)-8-(2-chloro-3,4,5-trimethoxy-benzyl)-9H-purin-6-ylamine] | 0.52 µM |  |  |  | 0.65 µM | 3 µM | 4.5 µM | 5.4 µM | 4.5 µM |  |  |  |
| C=CCCn1c(Cc2cc(OC)c(OC)c(OC)c2)nc2c(N)ncnc21 [PU8] | 10.6 µM | 30 µM | 41 µM | 73 µM | 4 µM |  |  |  |  |  |  |  |
| COc1cc(Cc2nc3c(N)ncnc3n2CC2CC2)cc(OC)c1OC [PU15] | 16.2 µM | 70 µM | 75 µM | 70 µM | 12 µM |  |  |  |  |  |  |  |
